Reference: patent publication US7101831B2, “Compositions of material, especially lubricants and pressure transmitting means, the production and use thereof” (Fuchs Petrolub AG, priority 2000, dated 2006)

How the values were obtained:
Type in all cases: physicochemical
[1] = ROBOT oxidation stability test; conditions: 35 g of lubricant; 6.25 bar of oxygen; T = 120° C., without catalyst
Pour point = assay: Pour point
Text: (§1) Example 27 illustrates the properties of the methyl formyloxystearate and methyl [2,2-dimethylpropionyloxy]-stearate esters prepared according to examples 1 and 4 compared to pure methyl oleate (base raw material).

Viscosity index (VI) = assay: Viscosity index (VI)
Text: as §1

[2] = Kinematic viscosity (KV) of the esters compared to methyl oleate
Text: as §1

Density = assay: Density
Text: as §1

Row | Molecule | ROBOT [1] [min] | Pour point (Pour point) [°C] | VI (Viscosity index (VI)) | KV (40° C.) [2] [mm^2/s] | KV (100° C.) [2] [mm^2/s] | Density (15° C.) (Density) [kg/m^3]
1 | methyl 9(10)-formyloxystearate [Methyl formyloxystearate] | 165 | −18 | 120 | 12.0 | 3.1 | 933.65
2 | CCCCCCCCCC(CCCCCCCC(=O)OC)OC(=O)C(C)(C)C (centres unmarked) [methyl 9-(10)-[2,2′-dimethylpropionyloxy]stearate] | 27 | −9 | 139 | 13.1 | 3.4 | 902.73
3 | CCCCCCCC/C=C\CCCCCCCC(=O)OC [Methyl oleate, methyl oleate, reference compound] | 10 | −18 | 178 | 4.5 | 1.7 | 
